Experimental data published in ChEMBL document CHEMBL1122875, “Orally absorbable cephalosporin antibiotics. 3. Preparation of biologically active R isomer of 7-(3-benzothienylglycylamido)deacetoxycephalosporanic acid” (1985).
≈ marks a conversion by molar mass, not a printed value.

Legend:
Format in all cases: functional
[1] = system: Staphylococcus aureus; assay: Tested for antibacterial activity against methicillin resistant Staphylococcus aureus S13E.
[2] = system: Streptococcus; assay: The compound was tested for antibacterial activity against Streptococcus group D X66.
[3] = system: Staphylococcus aureus; assay: Tested for antibacterial activity against methicillin resistant Staphylococcus aureus X400.
[4] = system: Staphylococcus aureus; assay: Tested for antibacterial activity against penicillin G sensitive Staphylococcus aureus X1.1
[5] = system: Streptococcus pyogenes; assay: The compound was tested for antibacterial activity against Streptococcus pyogenes C203.
[6] = system: Haemophilus influenzae; assay: The compound was tested for antibacterial activity against resistant Haemophilus influenzae 76.
[7] = system: Streptococcus pneumoniae; assay: The compound was tested for antibacterial activity against Streptococcus pneumoniae Park.
[8] = system: Staphylococcus aureus; assay: Tested for antibacterial activity against penicillin G resistant Staphylococcus aureus V41.
[9] = system: Haemophilus influenzae; assay: The compound was tested for antibacterial activity against sensitive Haemophilus influenzae C.L.
[10] = system: Staphylococcus epidermidis; assay: The compound was tested for antibacterial activity against Staphylococcus epidermidis EP11.

| Compound | MIC [1] [µg/mL] | MIC [2] [µg/mL] | MIC [3] [µg/mL] | MIC [4] [µg/mL] | MIC [5] [µg/mL] | MIC [6] [µg/mL] | MIC [7] [µg/mL] | MIC [8] [µg/mL] | MIC [9] [µg/mL] | MIC [10] [µg/mL] |
| --- | --- | --- | --- | --- | --- | --- | --- | --- | --- | --- |
| CC1=C(C(=O)O)N2C(=O)C(NC(=O)[C@@H](N)c3csc4ccccc34)C2SC1 (some centres not stated) | 128 (≈ 317 µM) | > 128 | > 128 | 32 (≈ 79.3 µM) | 16 (≈ 39.7 µM) | 16 (≈ 39.7 µM) | 16 (≈ 39.7 µM) | – | – | – |
| CC1=C(C(=O)O)N2C(=O)C(NC(=O)[C@H](N)c3csc4ccccc34)C2SC1 (some centres not stated) | 4 (≈ 9.91 µM) | 128 (≈ 317 µM) | 32 (≈ 79.3 µM) | 1 (≈ 2.48 µM) | 0.5 (≈ 1.24 µM) | 1 (≈ 2.48 µM) | 0.5 (≈ 1.24 µM) | 4 (≈ 9.91 µM) | 2 (≈ 4.96 µM) | 4 (≈ 9.91 µM) |
| CC1=C(C(=O)O)N2C(=O)C(NC(=O)C(N)c3csc4ccccc34)C2SC1 (configuration not stated) | 16 (≈ 39.7 µM) | > 128 | – | 2 (≈ 4.96 µM) | 2 (≈ 4.96 µM) | 2 (≈ 4.96 µM) | 4 (≈ 9.91 µM) | 8 (≈ 19.8 µM) | 4 (≈ 9.91 µM) | 4 (≈ 9.91 µM) |
| CC1=C(C(=O)O)N2C(=O)[C@@H](NC(=O)[C@H](N)c3ccccc3)[C@H]2SC1 [CEPHALEXIN ANHYDROUS] | – | – | – | 4 (≈ 11.5 µM) | 0.5 (≈ 1.44 µM) | 8 (≈ 23 µM) | 2 (≈ 5.76 µM) | – | 8 (≈ 23 µM) | 32 (≈ 92.1 µM) |
